Laboratory results from PubChem BioAssay (NCI).
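Tested at 5 concentrations; 48 h exposure; 96-well plates; endpoints linearly interpolated, else capped at highest concentration. TGI marks complete inhibition of growth.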

What was measured:
Assay in all cases: inhibition of tumour cell growth, NCI panel, 48 h
T-47D breast = tested on: T-47D breast
HCC-2998 colon = tested on: HCC-2998 colon
A549 NSCLC = tested on: A549 NSCLC
SNB-75 CNS = tested on: SNB-75 CNS
COLO 205 colon = tested on: COLO 205 colon
786-0 renal = tested on: 786-0 renal
SK-MEL-28 melanoma = tested on: SK-MEL-28 melanoma
SF-295 CNS = tested on: SF-295 CNS
NCI-H226 lung = tested on: NCI-H226 lung
PC-3 prostate = tested on: PC-3 prostate
OVCAR-8 ovarian = tested on: OVCAR-8 ovarian
K-562 leukemia = tested on: K-562 leukemia
ACHN renal = tested on: ACHN renal
DU-145 prostate = tested on: DU-145 prostate
MDA-MB-231 breast = tested on: MDA-MB-231 breast
NCI/ADR-RES ovarian = tested on: NCI/ADR-RES ovarian
SN12C renal = tested on: SN12C renal
CAKI-1 renal = tested on: CAKI-1 renal
OVCAR-5 ovarian = tested on: OVCAR-5 ovarian
HOP-62 NSCLC = tested on: HOP-62 NSCLC

O=C(CC(C(=O)c1cccs1)c1ccsc1)c1ccc(Cl)cc1 (stereo not given)
TGI (T-47D breast): > 100 µM
TGI (HCC-2998 colon): > 100 µM
TGI (A549 NSCLC): > 100 µM
TGI (SNB-75 CNS): > 100 µM
TGI (COLO 205 colon): > 100 µM
TGI (786-0 renal): > 100 µM
TGI (SK-MEL-28 melanoma): > 100 µM
TGI (SF-295 CNS): > 100 µM
TGI (NCI-H226 lung): > 100 µM
TGI (PC-3 prostate): > 100 µM
TGI (OVCAR-8 ovarian): > 100 µM
TGI (K-562 leukemia): > 100 µM
TGI (ACHN renal): > 100 µM
TGI (DU-145 prostate): > 100 µM
TGI (MDA-MB-231 breast): > 100 µM
TGI (NCI/ADR-RES ovarian): > 100 µM
TGI (SN12C renal): > 100 µM
TGI (CAKI-1 renal): > 100 µM
TGI (OVCAR-5 ovarian): > 100 µM
TGI (HOP-62 NSCLC): > 100 µM

O=P1(N(CCCl)CCCl)Oc2c(Cl)cc(Cl)c(Cl)c2Cc2c(Cl)c(Cl)cc(Cl)c2O1
TGI (T-47D breast): > 100 µM
TGI (HCC-2998 colon): > 100 µM
TGI (A549 NSCLC): > 100 µM
TGI (SNB-75 CNS): > 100 µM
TGI (COLO 205 colon): 45.7 µM
TGI (786-0 renal): > 100 µM
TGI (SK-MEL-28 melanoma): > 100 µM
TGI (SF-295 CNS): > 100 µM
TGI (NCI-H226 lung): > 100 µM
TGI (PC-3 prostate): > 100 µM
TGI (OVCAR-8 ovarian): > 100 µM
TGI (K-562 leukemia): > 100 µM
TGI (ACHN renal): > 100 µM
TGI (DU-145 prostate): > 100 µM
TGI (MDA-MB-231 breast): > 100 µM
TGI (NCI/ADR-RES ovarian): > 100 µM
TGI (SN12C renal): > 100 µM
TGI (CAKI-1 renal): > 100 µM
TGI (OVCAR-5 ovarian): > 100 µM
TGI (HOP-62 NSCLC): > 100 µM

Clc1ccc(C2ON=C(c3ccccc3)N2C23CC4CC(CC(C4)C2)C3)cc1Cl (stereo not given)
TGI (T-47D breast): > 10 µM
TGI (HCC-2998 colon): > 10 µM
TGI (A549 NSCLC): > 10 µM
TGI (SNB-75 CNS): > 10 µM
TGI (COLO 205 colon): > 10 µM
TGI (786-0 renal): > 10 µM
TGI (SK-MEL-28 melanoma): > 10 µM
TGI (SF-295 CNS): > 10 µM
TGI (NCI-H226 lung): > 10 µM
TGI (PC-3 prostate): > 10 µM
TGI (OVCAR-8 ovarian): > 10 µM
TGI (K-562 leukemia): > 10 µM
TGI (ACHN renal): > 10 µM
TGI (DU-145 prostate): > 10 µM
TGI (MDA-MB-231 breast): > 10 µM
TGI (NCI/ADR-RES ovarian): > 10 µM
TGI (SN12C renal): > 10 µM
TGI (CAKI-1 renal): > 10 µM
TGI (OVCAR-5 ovarian): > 10 µM
TGI (HOP-62 NSCLC): > 10 µM

O=C(O)c1[nH]c(=O)[nH]c(=O)c1CN1CCCCC1
TGI (T-47D breast): > 100 µM
TGI (HCC-2998 colon): > 100 µM
TGI (A549 NSCLC): > 100 µM
TGI (SNB-75 CNS): > 100 µM
TGI (COLO 205 colon): > 100 µM
TGI (786-0 renal): > 100 µM
TGI (SK-MEL-28 melanoma): > 100 µM
TGI (SF-295 CNS): > 100 µM
TGI (NCI-H226 lung): > 100 µM
TGI (PC-3 prostate): > 100 µM
TGI (OVCAR-8 ovarian): > 100 µM
TGI (K-562 leukemia): > 100 µM
TGI (ACHN renal): > 100 µM
TGI (DU-145 prostate): > 100 µM
TGI (MDA-MB-231 breast): > 100 µM
TGI (NCI/ADR-RES ovarian): > 100 µM
TGI (SN12C renal): > 100 µM
TGI (CAKI-1 renal): > 100 µM
TGI (OVCAR-5 ovarian): > 100 µM
TGI (HOP-62 NSCLC): > 100 µM

Nc1nc(Cl)cc(NCC2(CO)CC(CCCc3ccccc3)C2)n1 (stereo not given)
TGI (T-47D breast): > 100 µM
TGI (HCC-2998 colon): > 100 µM
TGI (A549 NSCLC): > 100 µM
TGI (SNB-75 CNS): 98.2 µM
TGI (COLO 205 colon): > 100 µM
TGI (786-0 renal): > 100 µM
TGI (SK-MEL-28 melanoma): > 100 µM
TGI (SF-295 CNS): > 100 µM
TGI (NCI-H226 lung): > 100 µM
TGI (PC-3 prostate): > 100 µM
TGI (OVCAR-8 ovarian): > 100 µM
TGI (K-562 leukemia): > 100 µM
TGI (ACHN renal): > 100 µM
TGI (DU-145 prostate): > 100 µM
TGI (MDA-MB-231 breast): > 100 µM
TGI (NCI/ADR-RES ovarian): > 100 µM
TGI (SN12C renal): > 100 µM
TGI (CAKI-1 renal): > 100 µM
TGI (OVCAR-5 ovarian): > 100 µM
TGI (HOP-62 NSCLC): > 100 µM

CCCCCCCCCCCCCCCCCCNc1ccn(C2OC(COP(=O)(O)OCC(COP(=O)(O)OCC3OC(n4cc(C)c(=O)[nH]c4=O)CC3N=[N+]=[N-])OCCCCCCCCCCCCCCCCCC)C(O)C2O)c(=O)n1 (stereo not given)
TGI (T-47D breast): > 100 µM
TGI (HCC-2998 colon): > 100 µM
TGI (A549 NSCLC): > 100 µM
TGI (SNB-75 CNS): > 100 µM
TGI (COLO 205 colon): > 100 µM
TGI (786-0 renal): > 100 µM
TGI (SK-MEL-28 melanoma): > 100 µM
TGI (SF-295 CNS): > 100 µM
TGI (NCI-H226 lung): > 100 µM
TGI (PC-3 prostate): > 100 µM
TGI (OVCAR-8 ovarian): > 100 µM
TGI (K-562 leukemia): > 100 µM
TGI (ACHN renal): > 100 µM
TGI (DU-145 prostate): > 100 µM
TGI (MDA-MB-231 breast): > 100 µM
TGI (NCI/ADR-RES ovarian): > 100 µM
TGI (SN12C renal): > 100 µM
TGI (CAKI-1 renal): > 100 µM
TGI (OVCAR-5 ovarian): > 100 µM
TGI (HOP-62 NSCLC): > 100 µM

COc1cc2c(NCCN(C)C)nc3c4cc5c(cc4ccc3c2cc1OC)OCO5
TGI (T-47D breast): 11.5 µM
TGI (HCC-2998 colon): 8.93 µM
TGI (A549 NSCLC): 6.67 µM
TGI (SNB-75 CNS): 5.39 µM
TGI (COLO 205 colon): 5.82 µM
TGI (786-0 renal): 6.15 µM
TGI (SK-MEL-28 melanoma): 9.16 µM
TGI (SF-295 CNS): 5.7 µM
TGI (NCI-H226 lung): 8.18 µM
TGI (PC-3 prostate): 8.7 µM
TGI (OVCAR-8 ovarian): 6.97 µM
TGI (K-562 leukemia): 7.49 µM
TGI (ACHN renal): 4.01 µM
TGI (DU-145 prostate): 7.32 µM
TGI (MDA-MB-231 breast): 9.05 µM
TGI (NCI/ADR-RES ovarian): 8.31 µM
TGI (SN12C renal): 8.17 µM
TGI (CAKI-1 renal): 5.88 µM
TGI (OVCAR-5 ovarian): 6.71 µM
TGI (HOP-62 NSCLC): 7.09 µM

CCOP(=O)(OCC)c1cc2cc(O)ccc2oc1=O
TGI (T-47D breast): > 100 µM
TGI (HCC-2998 colon): > 100 µM
TGI (A549 NSCLC): > 100 µM
TGI (SNB-75 CNS): > 100 µM
TGI (COLO 205 colon): > 100 µM
TGI (786-0 renal): > 100 µM
TGI (SK-MEL-28 melanoma): > 100 µM
TGI (SF-295 CNS): > 100 µM
TGI (NCI-H226 lung): > 100 µM
TGI (PC-3 prostate): > 100 µM
TGI (OVCAR-8 ovarian): > 100 µM
TGI (K-562 leukemia): > 100 µM
TGI (ACHN renal): > 100 µM
TGI (DU-145 prostate): > 100 µM
TGI (MDA-MB-231 breast): > 100 µM
TGI (NCI/ADR-RES ovarian): > 100 µM
TGI (SN12C renal): > 100 µM
TGI (CAKI-1 renal): > 100 µM
TGI (OVCAR-5 ovarian): > 100 µM
TGI (HOP-62 NSCLC): > 100 µM

OC1C2CCC3C2CC(C(O)(c2ccccc2)c2ccccc2)C13 (stereo not given)
TGI (T-47D breast): > 100 µM
TGI (HCC-2998 colon): > 100 µM
TGI (A549 NSCLC): > 100 µM
TGI (SNB-75 CNS): 43.9 µM
TGI (COLO 205 colon): 37.2 µM
TGI (786-0 renal): > 100 µM
TGI (SK-MEL-28 melanoma): > 100 µM
TGI (SF-295 CNS): > 100 µM
TGI (NCI-H226 lung): 92.6 µM
TGI (PC-3 prostate): > 100 µM
TGI (OVCAR-8 ovarian): > 100 µM
TGI (K-562 leukemia): > 100 µM
TGI (ACHN renal): > 100 µM
TGI (DU-145 prostate): > 100 µM
TGI (MDA-MB-231 breast): > 100 µM
TGI (NCI/ADR-RES ovarian): > 100 µM
TGI (SN12C renal): 47 µM
TGI (CAKI-1 renal): > 100 µM
TGI (OVCAR-5 ovarian): > 100 µM
TGI (HOP-62 NSCLC): > 100 µM

CC(=O)N(C(=O)CC(=O)NNCc1ccccc1Cl)c1ccc(Cl)cc1
TGI (T-47D breast): > 10 µM
TGI (HCC-2998 colon): > 10 µM
TGI (A549 NSCLC): > 10 µM
TGI (SNB-75 CNS): > 10 µM
TGI (COLO 205 colon): > 10 µM
TGI (786-0 renal): > 10 µM
TGI (SK-MEL-28 melanoma): > 10 µM
TGI (SF-295 CNS): > 10 µM
TGI (NCI-H226 lung): > 10 µM
TGI (PC-3 prostate): > 10 µM
TGI (OVCAR-8 ovarian): > 10 µM
TGI (K-562 leukemia): > 10 µM
TGI (ACHN renal): > 10 µM
TGI (DU-145 prostate): > 10 µM
TGI (MDA-MB-231 breast): > 10 µM
TGI (NCI/ADR-RES ovarian): > 10 µM
TGI (SN12C renal): > 10 µM
TGI (CAKI-1 renal): > 10 µM
TGI (OVCAR-5 ovarian): > 10 µM
TGI (HOP-62 NSCLC): > 10 µM

O=[N+]([O-])c1ccc(CSc2c3ccccc3nc3ccccc23)cc1
TGI (T-47D breast): 4.18 µM
TGI (HCC-2998 colon): 32.7 µM
TGI (A549 NSCLC): 51.4 µM
TGI (SNB-75 CNS): 33.1 µM
TGI (COLO 205 colon): 16.9 µM
TGI (786-0 renal): 4.22 µM
TGI (SK-MEL-28 melanoma): 13.5 µM
TGI (SF-295 CNS): 41.7 µM
TGI (NCI-H226 lung): 35.8 µM
TGI (PC-3 prostate): 20 µM
TGI (OVCAR-8 ovarian): 10.8 µM
TGI (K-562 leukemia): > 34.9 µM
TGI (ACHN renal): 12.9 µM
TGI (DU-145 prostate): 5.92 µM
TGI (MDA-MB-231 breast): 27.4 µM
TGI (NCI/ADR-RES ovarian): 52.1 µM
TGI (SN12C renal): 9.81 µM
TGI (CAKI-1 renal): 29.6 µM
TGI (OVCAR-5 ovarian): 32.5 µM
TGI (HOP-62 NSCLC): 35.7 µM
